Results published in patent US20230295159A1, “ATX INHIBITOR, AND PREPARATION METHOD THEREFOR AND USE THEREOF” (SUZHOU ARK BIOPHARMACEUTICAL CO., LTD., priority 2020, published 2023).
Read-outs that look alike come from different tables or passages of the source.

Tests used:
ATX enzyme = ATX enzyme (Homo sapiens (Human), UniProt Q13822); assay: ATX enzyme activity inhibition assay; assay type: biochemical; conditions: 16:0-LPC substrate, Amplex UltraRed fluorescence
Procedure: The tested compounds were dissolved with dimethyl sulfoxide (DMSO) to prepare 20 mM of stock solutions, the stock solutions were subjected to 4-fold gradient dilutions with DMSO, with the initial concentration of 20 µM and a total of 8 concentration gradients. 20 nL of diluted compound was transferred to a 384-well plate using Echo 550 and 5 µL of ATX enzyme solution formulated with 4 × Tris-HCl reaction buffer to the well, then the 384-well plate was centrifuged at 1000 rpm for 1 min and […] pre-incubated at room temperature for 15 min. Subsequently, 5 µL of 16:0-LPC foumulated with the above 4 × reaction buffer and 10 µL of assay solution containng 2 × Amplex UltraRed reagent, choline oxidase and horseradish peroxidase (HRP) foumulated with the same reaction buffer were added to each well, then the 384-well plate was centrifugated at 1000 rpm for 1 min. The fluorescence signals were read at an excitation wavelength of 530 nm and an emission wavelength of 590 nm by Synergy 2 microplate reader. The inhibition rate of the compound against enzyme reaction was calculated according to the fluorescence intensity ratio, and IC50 of the compound was analysed and calculated by GraphPad Prism 5 software.

[1] = Rat pharmacokinetic study; assay type: in vivo, SD rat; conditions: for F: PO 10 mg/kg vs IV 2 mg/kg; for AUC(0-inf) / AUC(0-t) / Cmax / half-life / Tmax: SD, plasma; for half-life: read-out: t½ (converted)
Procedure: SD rat pharmacokinetic study was performed on several compounds in Examples of the present disclosure through a single intravenous injection (IV, at a dose of 2 mg/kg) and a single oral administration (PO, at a dose of 10 mg/kg), and blood samples were taken before administration and 5 min, 15 min, 30 min, 1 h, 2 h, 4 h, 8 h, 12 h and 24 h after administration, respectively, to determine the plasma concentration of the compound for assay. The pharmacokinetic data of control compound and the compounds in Examples 17, 26, 28 and 29 of the present disclosure in rat plasma are shown in Tables 4-8.

hERG potassium channel = hERG potassium channel (Homo sapiens (Human), UniProt Q12809); assay: hERG inhibition assay (manual whole-cell patch clamp); assay type: cell-based; conditions: hERG tail current, stable transfected cell line
Chain of hERG potassium channel (Q12809 whole entry): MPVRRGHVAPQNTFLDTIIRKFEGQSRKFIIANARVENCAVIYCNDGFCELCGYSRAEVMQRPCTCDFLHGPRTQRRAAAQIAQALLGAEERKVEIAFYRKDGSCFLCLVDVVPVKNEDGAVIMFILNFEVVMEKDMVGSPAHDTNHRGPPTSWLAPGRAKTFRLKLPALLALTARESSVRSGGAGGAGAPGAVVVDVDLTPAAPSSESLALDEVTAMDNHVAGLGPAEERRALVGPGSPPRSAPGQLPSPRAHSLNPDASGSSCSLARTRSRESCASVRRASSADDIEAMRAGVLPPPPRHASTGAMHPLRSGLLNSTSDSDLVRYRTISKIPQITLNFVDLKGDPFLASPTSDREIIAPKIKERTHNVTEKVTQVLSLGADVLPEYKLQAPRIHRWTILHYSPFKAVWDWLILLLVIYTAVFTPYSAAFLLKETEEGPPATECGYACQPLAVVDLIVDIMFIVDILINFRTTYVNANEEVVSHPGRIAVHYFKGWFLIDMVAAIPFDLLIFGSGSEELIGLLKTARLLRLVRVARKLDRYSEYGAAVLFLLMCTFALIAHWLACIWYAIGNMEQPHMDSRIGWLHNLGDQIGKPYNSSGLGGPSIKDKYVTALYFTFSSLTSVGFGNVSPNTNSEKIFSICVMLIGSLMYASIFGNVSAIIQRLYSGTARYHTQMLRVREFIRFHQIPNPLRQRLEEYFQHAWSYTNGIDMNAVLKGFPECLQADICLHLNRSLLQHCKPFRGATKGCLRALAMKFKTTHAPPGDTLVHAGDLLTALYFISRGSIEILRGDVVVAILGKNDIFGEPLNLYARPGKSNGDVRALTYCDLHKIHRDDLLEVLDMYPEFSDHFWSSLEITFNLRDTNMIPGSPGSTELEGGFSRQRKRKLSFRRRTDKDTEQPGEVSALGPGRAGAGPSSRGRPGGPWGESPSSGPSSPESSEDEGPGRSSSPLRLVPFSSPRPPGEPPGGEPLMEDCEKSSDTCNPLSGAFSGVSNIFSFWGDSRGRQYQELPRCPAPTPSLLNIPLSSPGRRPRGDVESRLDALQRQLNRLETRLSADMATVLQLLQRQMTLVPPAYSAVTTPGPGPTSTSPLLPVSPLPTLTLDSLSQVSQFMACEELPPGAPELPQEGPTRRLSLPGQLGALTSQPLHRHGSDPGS
Procedure: Rapid activation of human delayed rectifier potassium current (IKr) is mainly mediated by hERG ion channel and participates in repolarization of human cardiomyocytes. Blocking this current with drugs will lead to QT interval prolongation syndrome in clinical practice, which will easily induce acute arrhythmia and even sudden death.
Experimental method: a whole-cell patch clamp technique was used to record hERG current. The cell suspension was added to a small petri dish and placed on an inverted microscope stage. After adherence, the cells were perfused with extracellular fluid at a recommended flow rate of 1-2 mL/min. The glass microelectrode was drawn by a microelectrode drawing instrument in two steps, and the resistance thereof after filling the electrode interior liquid was 2-5 MΩ. After the whole-cell recording mode was set up, the clamping potential was maintained at -80 mV. The depolarization voltage was applied to +60 mV for 850 ms, and then repolarized to -50 mV for 1275 ms to induce hERG tail current. Such a set of pulse programming was repeated every 15 seconds throughout the experiment. After the current was stable, the drug was administered by extracellular continuous perfusion from low concentration to high concentration. Starting from low concentration, perfusion continued until the drug effect was stable, then perfusion at the next concentration was performed. In this experiment, the blocking effect on hERG tail current was tested for the test objects at different concentrations and the positive control (N ≥ 2). Then, stimulus generation and signal acquisition were carried out by PatchMaster software; and a signal was amplified with a patch clamp amplifier. FitMaster, EXCEL, Graphpad Prism, SPSS 21.0, etc. were used for further data analysis and curve fitting. In data processing, when determining the blocking effect on hERG, the peak and baseline of tail current were calibrated. The inhibition rate (IR) of tail current was used to express the effect of the compounds at different concentrations.
IR = 100% × (peak of tail current before administration - peak of tail current after administration)/peak of tail current before administration.
IC50 was obtained by fitting the Hill equation (if applicable), if the maximum inhibition rate of the test object at all concentrations was less than 50%, then IC50 was not calculated. [00500]

[2] = target: 3A4 subtype of CYP450 enzyme (Homo sapiens (Human), UniProt P08684); assay: 3A4 subtype of CYP450 enzyme time-dependent inhibition assay (IC50 shift); assay type: in vitro ADME; conditions: both IC50 values above top concentration; testosterone substrate; read-out: IC50 against 3A4 subtype (both groups, pre-incubated with and without NADPH)
Chain of 3A4 subtype of CYP450 enzyme (P08684 whole entry): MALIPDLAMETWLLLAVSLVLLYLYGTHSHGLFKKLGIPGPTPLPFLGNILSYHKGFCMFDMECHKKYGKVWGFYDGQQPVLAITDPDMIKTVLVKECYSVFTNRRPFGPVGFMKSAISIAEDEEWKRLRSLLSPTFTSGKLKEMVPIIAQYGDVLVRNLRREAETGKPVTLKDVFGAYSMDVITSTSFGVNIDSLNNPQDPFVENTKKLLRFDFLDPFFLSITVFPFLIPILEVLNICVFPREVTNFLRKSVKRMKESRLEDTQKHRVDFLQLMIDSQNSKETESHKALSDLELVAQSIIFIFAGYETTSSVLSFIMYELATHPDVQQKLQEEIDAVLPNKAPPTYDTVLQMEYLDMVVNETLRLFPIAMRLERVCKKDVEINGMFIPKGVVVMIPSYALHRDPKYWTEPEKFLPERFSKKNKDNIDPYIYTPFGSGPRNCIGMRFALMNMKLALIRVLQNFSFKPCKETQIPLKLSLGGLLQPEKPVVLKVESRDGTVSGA
Procedure: The probe substrate was testosterone at a concentration of 50 µM. The reaction was terminated after incubation for 10 min. The IC50 of the compound against enzyme was calculated by measuring the relative yield of metabolite, and the IC50 shift was calculated from the IC50 results of the groups pre-incubated with and without addition of NADPH.

IC50 (ATX enzyme) [µM] | Cl_F_pred ([1]; IV 2 mg/kg) [mL/min/kg] | Cl_F_pred ([1]; PO 10 mg/kg) [mL/min/kg] | F [1] [%] | AUC(0-inf) ([1]; IV 2 mg/kg) [ng·h/mL] | AUC(0-t) ([1]; IV 2 mg/kg) [ng·h/mL] | Cmax ([1]; IV 2 mg/kg) [ng/mL] | half-life ([1]; IV 2 mg/kg) [h] | AUC(0-inf) ([1]; PO 10 mg/kg) [ng·h/mL] | AUC(0-t) ([1]; PO 10 mg/kg) [ng·h/mL] | Cmax ([1]; PO 10 mg/kg) [ng/mL] | Tmax ([1]; PO 10 mg/kg) [h] | half-life ([1]; PO 10 mg/kg) [h] | IC50 [2] [µM] | SMILES | IC50 (hERG potassium channel) [µM]
0.0074 | 7.17 | 18.2 | 38.5 | 4720 | 4680 | 2540 | 4 | 9180 | 9030 | 1030 | 4 | 3.7 | > 100 | CCN(c1nc(-c2ccc(F)cc2)c(C#N)s1)c1c2nc(-c3cnc(N4CCCS4(=O)=O)nc3)ccc2nn1CC [Example 17, 2-((5-(2-(1,1-dioxidoisothiazolidin-2-yl)pyrimidin-5-yl)-2-ethyl-2H-pyrazolo[4,3-b]pyridin-3-yl)(ethyl)amino)-4-(4-fluorophenyl)thiazole-5-carbonitrile] | > 30
0.023 | 4.83 | 18.3 | 11.2 | 7220 | 6840 | 3480 | 8.2 | 9150 | 7780 | 847 | 3.3 | 9.2 | > 100 | CCN(c1nc(-c2ccc(F)cc2)c(C#N)s1)c1c2nc(-c3cnc(N4CCOCC4)nc3)ccc2nn1CC [Example 29, 2-(ethyl(2-ethyl-5-(2-morpholinopyrimidin-5-yl)-2H-pyrazolo[4,3-b]pyridin-3-yl)amino)-4-(4-fluorophenyl)thiazole-5-carbonitrile] | > 30
